US20120165403A1, “METHODS OF INHIBITING THE ACTIVITY OF HSP90 AND/OR ARYL HYDROCARBON RECEPTOR” (UNIVERSITY OF ROCHESTER, priority 2004, published 2012)

Columns and labels:
[1] = test system: TCDD-mediated CYP1A1 gene induction; assay: CYP1A1 gene induction in HepG2 cells; assay type: cell-based, human
[2] = molecular target: T1, ARNT (Mus musculus, UniProt P53762); assay: Affinity chromatography on EGCG-conjugated Sepharose, in vitro translated ARNT; assay type: binding, murine; settings: 35S-ARNT in vitro translated in RRL
T1 construct: made in house; host or cells: coupled transcription/translation in rabbit reticulocyte lysate (TNT, Promega), 35S-labelled
Excerpt: Murine AhR and ARNT cDNA (obtained from J. Whitlock and O. Hankinson, respectively) were inserted into pcDNA3 (Invitrogen, Carlsbad, Calif.). Chicken hsp90 constructs (FIG. 5), c90711hsp (wild-type), c90G94D (wild-type point mutant gly94→Asp (Grenert et al., J. Biol. Chem. 272:23843-23850 (1997), which is hereby incorporated by reference in its entirety), c90D92A (wild-type point mutant Asp92→Ala (Sullivan et al., J. Biol. Chem. 268:20373-20379 (1993), which is hereby incorporated by reference in its entirety), c90N221 (wild-type truncation mutant encoding a.a. 221-728 (Sullivan et al., J. Biol. Chem. 268:20373-20379 (1993), which is hereby incorporated by reference in its entirety)), c90N303 (a.a. 303-728) and c90N538 (a.a. 538-728) were kind gifts from Dr. D. Toft (Rochester, Minn.). The C-terminal truncation mutant c900507 (a.a. 1-221) was obtained from Dr. L. Neckers (Rockville, Md.) (Grenert et al., J. Biol. Chem. 272:23843-23850 (1997); Marcu et al., J. Biol. Chem. 275:37181-37186 (2000), which are hereby incorporated by reference in their entirety). Human p23 cDNA was excised from pQE80-p23 (obtained from W. Chan Stockton, Calif.) by sequential digests using the restriction enzymes Sad (3′-end) and BamHI (5′-end) and inserted into the similarly digested pET28a (Novagen, Madison, Wis.). […]

[3] = test system: AhR; assay: Immunocytochemistry of AhR subcellular localization in Hepa cells; assay type: cell-based, mouse; settings: 1 h
Method: Hepa cells were plated onto four-well chamber slides (Becton Dickinson, Bedford, Mass.) at a density of 2.0×10^4 and incubated overnight. Cells were treated with either vehicle (DMSO), TCDD (150 pM), EGCG alone (200 μM), or EGCG in the presence of TCDD (150 pM) for 1 h. Cells were fixed with 3.7% formalin at room temperature for 10 minutes, followed by a four minute incubation in anhydrous methanol at 4° C. All antibodies were filtered through a 0.45 micron filter before staining Cells were blocked for one hour in phosphate buffered saline containing 4% BSA, incubated with anti-AhR at a 1:2000 dilution for two hours at room temperature, followed by a one hour incubation with 1:1000 anti-rabbit Alexa-Fluor conjugated secondary antibody (Molecular Probes, Eugene Oreg.). Nuclei were stained with DAPI (0.5 μg/ml) (Molecular Probes) for three minutes at room temperature. Slides were mounted with 50% glycerol and coverslipped. AhR staining and nuclear staining were visualized using a Nikon Eclipse TS110 fluorescent microscope (40× magnification). Fluorescent images were captured using SPOT advanced software.

T1 sequence (P53762 whole entry): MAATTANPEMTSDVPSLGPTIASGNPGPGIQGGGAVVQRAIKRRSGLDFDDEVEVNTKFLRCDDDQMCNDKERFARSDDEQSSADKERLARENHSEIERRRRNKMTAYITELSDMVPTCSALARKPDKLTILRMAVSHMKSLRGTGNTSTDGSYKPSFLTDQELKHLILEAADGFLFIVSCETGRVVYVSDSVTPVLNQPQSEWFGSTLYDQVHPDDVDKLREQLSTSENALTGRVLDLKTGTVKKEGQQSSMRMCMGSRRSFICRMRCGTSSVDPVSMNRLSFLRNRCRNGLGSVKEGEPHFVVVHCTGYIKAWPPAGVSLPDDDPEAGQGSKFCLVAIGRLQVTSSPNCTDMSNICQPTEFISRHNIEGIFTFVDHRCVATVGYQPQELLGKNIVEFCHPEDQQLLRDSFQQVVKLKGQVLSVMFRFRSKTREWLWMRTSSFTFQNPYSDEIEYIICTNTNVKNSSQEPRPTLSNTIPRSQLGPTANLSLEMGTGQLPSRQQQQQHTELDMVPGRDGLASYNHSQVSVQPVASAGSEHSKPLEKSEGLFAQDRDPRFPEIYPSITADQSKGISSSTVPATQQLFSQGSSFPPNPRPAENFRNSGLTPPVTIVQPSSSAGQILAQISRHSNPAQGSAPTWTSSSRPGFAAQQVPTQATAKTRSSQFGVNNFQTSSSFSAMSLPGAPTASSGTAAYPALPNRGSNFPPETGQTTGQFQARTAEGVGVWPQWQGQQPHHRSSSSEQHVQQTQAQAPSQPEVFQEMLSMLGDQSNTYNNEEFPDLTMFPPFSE

## O=C(O[C@@H]1Cc2c(O)cc(O)cc2O[C@@H]1c1cc(O)c(O)c(O)c1)c1cc(O)c(O)c(O)c1 [EGCG, epigallocatechin gallate]
[1]
  inhibition of TCDD-mediated CYP1A1 gene induction: inhibited TCDD-mediated CYP1A1 gene induction
[2]
  binding of ARNT to immobilized EGCG: incapable of binding immobilized EGCG
[3]; 200 μM EGCG with 150 pM TCDD
  effect on TCDD induced nuclear localization of the AhR: did not attenuate this TCDD induced nuclear localization
[3]; EGCG 200 μM or TCDD 150 pM
  subcellular localization of the AhR, treatment alone: remarkable redistribution of the AhR from the cytosol to the nucleus
